In ChEMBL document CHEMBL1131100, “2-Iminopyrrolidines as potent and selective inhibitors of human inducible nitric oxide synthase” (J Med Chem, 1998):

Columns and labels:
[1] = target: T1, Nitric oxide synthase, inducible (Homo sapiens, UniProt P35228); assay: Inhibition of cloned (from RNA) human inducible nitric oxide synthase (hiNOS)
[2] = target: T2, Nitric oxide synthase 3 (Homo sapiens, UniProt P29474); assay: Inhibition of cloned (from RNA) human endothelial constitutive Endothelial nitric oxide synthase (heNOS)
T2 sequence (P29474 whole entry): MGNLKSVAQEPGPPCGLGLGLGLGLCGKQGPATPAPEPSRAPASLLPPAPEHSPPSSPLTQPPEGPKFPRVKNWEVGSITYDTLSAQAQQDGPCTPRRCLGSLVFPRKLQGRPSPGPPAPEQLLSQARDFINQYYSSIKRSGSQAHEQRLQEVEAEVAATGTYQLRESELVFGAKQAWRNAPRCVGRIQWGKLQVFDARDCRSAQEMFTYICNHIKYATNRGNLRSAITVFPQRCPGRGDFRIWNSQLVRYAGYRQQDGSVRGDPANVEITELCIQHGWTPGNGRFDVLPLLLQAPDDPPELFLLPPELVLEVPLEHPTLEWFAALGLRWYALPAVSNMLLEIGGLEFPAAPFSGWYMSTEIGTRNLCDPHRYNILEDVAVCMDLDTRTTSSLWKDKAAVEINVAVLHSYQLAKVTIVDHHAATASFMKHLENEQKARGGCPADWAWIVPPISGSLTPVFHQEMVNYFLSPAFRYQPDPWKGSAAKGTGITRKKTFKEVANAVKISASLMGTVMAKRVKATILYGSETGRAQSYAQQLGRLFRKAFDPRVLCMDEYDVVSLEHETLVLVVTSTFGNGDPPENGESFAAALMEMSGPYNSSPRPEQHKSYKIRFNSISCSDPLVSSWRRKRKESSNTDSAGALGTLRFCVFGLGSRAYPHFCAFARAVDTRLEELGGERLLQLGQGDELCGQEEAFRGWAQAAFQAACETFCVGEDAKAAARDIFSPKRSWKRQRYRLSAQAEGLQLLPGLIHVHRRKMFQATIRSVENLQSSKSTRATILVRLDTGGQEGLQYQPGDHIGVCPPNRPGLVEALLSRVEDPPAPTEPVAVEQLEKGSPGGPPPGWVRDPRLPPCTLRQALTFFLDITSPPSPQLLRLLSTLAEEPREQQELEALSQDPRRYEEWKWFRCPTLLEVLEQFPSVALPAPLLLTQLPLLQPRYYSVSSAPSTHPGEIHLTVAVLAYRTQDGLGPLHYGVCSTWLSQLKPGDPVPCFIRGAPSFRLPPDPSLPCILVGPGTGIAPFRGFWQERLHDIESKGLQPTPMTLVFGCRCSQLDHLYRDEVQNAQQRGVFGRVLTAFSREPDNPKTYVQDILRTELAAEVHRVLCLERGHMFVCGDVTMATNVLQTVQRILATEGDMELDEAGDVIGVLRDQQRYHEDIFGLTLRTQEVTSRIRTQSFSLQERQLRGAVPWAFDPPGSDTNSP

[3] = target: T3, Nitric oxide synthase 1 (Homo sapiens, UniProt P29475); assay: Inhibition of cloned (from RNA) human Neuronal nitric oxide synthase
[4] = target: T4, Nitric oxide synthase 3 (Homo sapiens) (UniProt P29474); assay: Inhibition of cloned (from RNA) human endothelial constitutive Endothelial nitric oxide synthase (heNOS)at 100 uM
T4 sequence (whole entry): T2 sequence (P29474 whole entry)

[5] = target: T3, Nitric oxide synthase 1; assay: Inhibition of cloned (from RNA) human Neuronal nitric oxide synthase at 100 uM
[6] = target: T1, Nitric oxide synthase, inducible; assay: Inhibition of cloned (from RNA) human inducible nitric oxide synthase (hiNOS) at 100 uM
[7] = target: T4, Nitric oxide synthase 3 (Homo sapiens); assay: Inhibition of cloned (from RNA) human endothelial constitutive Endothelial nitric oxide synthase (heNOS) at 100 uM
[8] = target: T1, Nitric oxide synthase, inducible; assay: Inhibition of cloned (from RNA) human inducible nitric oxide synthase (hiNOS)at 100 uM

T1 sequence (P35228 whole entry): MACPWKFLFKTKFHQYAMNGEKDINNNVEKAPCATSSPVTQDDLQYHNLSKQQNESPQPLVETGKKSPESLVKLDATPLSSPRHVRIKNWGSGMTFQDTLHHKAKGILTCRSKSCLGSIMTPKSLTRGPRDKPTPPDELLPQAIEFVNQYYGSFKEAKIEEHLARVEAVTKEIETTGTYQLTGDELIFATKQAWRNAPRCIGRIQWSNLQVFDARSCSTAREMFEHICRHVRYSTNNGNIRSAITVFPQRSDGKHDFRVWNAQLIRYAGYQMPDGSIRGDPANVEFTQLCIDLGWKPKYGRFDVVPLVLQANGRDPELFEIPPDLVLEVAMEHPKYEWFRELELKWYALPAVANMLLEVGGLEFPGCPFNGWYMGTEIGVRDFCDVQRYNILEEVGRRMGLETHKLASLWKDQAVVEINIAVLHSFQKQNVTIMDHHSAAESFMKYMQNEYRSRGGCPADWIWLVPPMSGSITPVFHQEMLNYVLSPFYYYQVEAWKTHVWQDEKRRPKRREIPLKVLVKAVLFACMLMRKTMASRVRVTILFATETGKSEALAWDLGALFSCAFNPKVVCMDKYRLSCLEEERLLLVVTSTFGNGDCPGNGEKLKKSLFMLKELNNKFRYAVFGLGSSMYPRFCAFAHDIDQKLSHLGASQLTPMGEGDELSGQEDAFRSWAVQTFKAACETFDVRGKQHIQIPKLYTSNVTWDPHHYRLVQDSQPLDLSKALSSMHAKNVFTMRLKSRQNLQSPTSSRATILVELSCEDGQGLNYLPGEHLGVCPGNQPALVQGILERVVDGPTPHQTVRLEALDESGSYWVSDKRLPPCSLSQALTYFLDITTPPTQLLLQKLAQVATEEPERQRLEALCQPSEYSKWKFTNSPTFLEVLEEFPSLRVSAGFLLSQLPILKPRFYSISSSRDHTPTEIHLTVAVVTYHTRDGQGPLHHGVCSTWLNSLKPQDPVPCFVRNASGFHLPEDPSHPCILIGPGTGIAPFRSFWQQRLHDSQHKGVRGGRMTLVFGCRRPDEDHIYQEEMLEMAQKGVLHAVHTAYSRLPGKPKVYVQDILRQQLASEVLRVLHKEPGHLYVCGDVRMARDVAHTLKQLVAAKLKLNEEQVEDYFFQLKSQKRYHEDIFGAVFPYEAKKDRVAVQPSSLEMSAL
T3 sequence (P29475 whole entry): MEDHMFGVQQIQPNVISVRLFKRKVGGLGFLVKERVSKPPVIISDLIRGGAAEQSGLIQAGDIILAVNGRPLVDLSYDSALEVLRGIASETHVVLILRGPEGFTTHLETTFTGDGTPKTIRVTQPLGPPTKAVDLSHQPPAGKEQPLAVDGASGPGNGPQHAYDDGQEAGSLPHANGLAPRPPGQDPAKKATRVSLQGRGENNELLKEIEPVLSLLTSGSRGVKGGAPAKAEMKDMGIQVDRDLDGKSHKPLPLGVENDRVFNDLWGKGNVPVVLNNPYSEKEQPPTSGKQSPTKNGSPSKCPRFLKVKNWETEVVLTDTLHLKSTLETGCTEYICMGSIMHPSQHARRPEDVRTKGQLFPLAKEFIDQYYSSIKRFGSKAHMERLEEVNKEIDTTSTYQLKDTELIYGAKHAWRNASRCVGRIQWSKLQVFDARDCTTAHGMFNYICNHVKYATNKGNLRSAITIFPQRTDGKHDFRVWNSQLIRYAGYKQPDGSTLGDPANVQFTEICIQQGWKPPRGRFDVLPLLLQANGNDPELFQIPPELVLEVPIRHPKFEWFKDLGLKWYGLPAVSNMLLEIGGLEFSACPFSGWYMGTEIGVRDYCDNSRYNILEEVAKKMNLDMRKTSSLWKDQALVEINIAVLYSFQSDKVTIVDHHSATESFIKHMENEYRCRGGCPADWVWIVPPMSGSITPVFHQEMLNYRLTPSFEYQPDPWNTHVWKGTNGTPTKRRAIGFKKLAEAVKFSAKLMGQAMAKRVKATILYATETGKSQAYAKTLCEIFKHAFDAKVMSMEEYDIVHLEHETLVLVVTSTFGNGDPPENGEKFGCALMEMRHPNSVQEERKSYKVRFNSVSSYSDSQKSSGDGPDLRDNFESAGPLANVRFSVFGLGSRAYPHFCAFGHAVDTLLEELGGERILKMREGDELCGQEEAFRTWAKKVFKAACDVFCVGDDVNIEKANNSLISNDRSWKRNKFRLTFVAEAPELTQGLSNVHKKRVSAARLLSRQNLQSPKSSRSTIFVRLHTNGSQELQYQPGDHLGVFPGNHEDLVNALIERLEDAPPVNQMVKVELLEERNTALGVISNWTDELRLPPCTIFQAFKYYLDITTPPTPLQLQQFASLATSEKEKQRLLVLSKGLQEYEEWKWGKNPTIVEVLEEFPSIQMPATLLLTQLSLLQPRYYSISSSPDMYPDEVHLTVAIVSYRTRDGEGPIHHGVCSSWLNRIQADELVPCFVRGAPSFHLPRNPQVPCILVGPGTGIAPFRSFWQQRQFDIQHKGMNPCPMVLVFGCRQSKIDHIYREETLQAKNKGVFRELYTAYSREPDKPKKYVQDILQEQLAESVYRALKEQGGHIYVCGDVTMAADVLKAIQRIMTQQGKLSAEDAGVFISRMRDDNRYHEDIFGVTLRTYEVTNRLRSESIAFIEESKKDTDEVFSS

SMILES: CCCC1N=C(N)CC1C (stereo unspecified)
- IC50 [1]: 0.3 µM
- IC50 [2]: 3.5 µM
- IC50 [3]: 0.39 µM

SMILES: CC1CN=C(N)C1 (stereo unspecified)
- IC50 [1]: 1.4 µM
- IC50 [2]: 14.2 µM
- IC50 [3]: 4.7 µM

SMILES: CCC1CN=C(N)C1 (stereo unspecified)
- IC50 [1]: 3.4 µM
- IC50 [2]: 29.8 µM
- IC50 [3]: 5.46 µM

SMILES: CC1CCN=C1N (stereo unspecified)
- IC50 [1]: 11.3 µM
- IC50 [2]: 9.1 µM
- IC50 [3]: 3 µM

SMILES: CCC1N=C(N)CC1C (stereo unspecified)
- IC50 [1]: 0.17 µM
- IC50 [2]: 1.6 µM
- IC50 [3]: 0.17 µM

SMILES: CCCCC1N=C(N)CC1C (stereo unspecified)
- IC50 [1]: 0.66 µM
- IC50 [2]: 23.6 µM
- IC50 [3]: 0.85 µM

SMILES: CC1CCC(N)=N1 (stereo unspecified)
- IC50 [1]: 10.2 µM
- IC50 [2]: 24.9 µM
- IC50 [3]: 9.8 µM

SMILES: CC1(C)CC(N)=NC1Cc1ccccc1 (stereo unspecified)
- inhibition [4]: 3%
- inhibition [5]: 17%
- inhibition [6]: 12%

SMILES: CCCCCC1N=C(N)CC1(C)C (stereo unspecified)
- inhibition [7]: 17%
- inhibition [8]: 64%
- inhibition [5]: 46%

SMILES: NC1=NC(Cc2ccccc2)CC1 (stereo unspecified)
- inhibition [7]: 16%
- inhibition [5]: 47%
- inhibition [6]: 26%

SMILES: CCCCCC1N=C(N)CC1C (stereo in doubt; 9)
- IC50 [1]: 0.91 µM
- IC50 [2]: 47.5 µM
- IC50 [3]: 1.31 µM

SMILES: CCCCCC1N=C(N)CC1C (stereo in doubt; 10)
- IC50 [1]: 0.36 µM
- IC50 [2]: 243 µM
- IC50 [3]: 5.37 µM

SMILES: CC1CC(N)=NC1Cc1ccccc1 (stereo in doubt; 11)
- IC50 [1]: 3 µM
- IC50 [2]: 458 µM
- IC50 [3]: 8.29 µM

SMILES: CCCCCC1N=C(N)CC1C(F)(F)F (stereo in doubt; 13)
- IC50 [1]: 10 µM
- IC50 [2]: 336 µM
- IC50 [3]: 9.05 µM

SMILES: CCCCCC1N=C(N)CC1C(F)(F)F (stereo in doubt; 14)
- IC50 [1]: 0.81 µM
- IC50 [2]: 392 µM
- IC50 [3]: 5.44 µM

SMILES: CC1CC(N)=NC1Cc1ccccc1 (stereo in doubt; 16)
- IC50 [1]: 14 µM
- IC50 [2]: 639 µM
- IC50 [3]: 11.2 µM

SMILES: NC1=NC(Cc2ccccc2)C(C(F)(F)F)C1 (stereo in doubt; 17)
- IC50 [1]: 22 µM
- IC50 [2]: 1010 µM
- IC50 [3]: 12.1 µM

SMILES: NC1=NC(Cc2ccccc2)C(C(F)(F)F)C1 (stereo in doubt; 18)
- IC50 [1]: 74 µM
- IC50 [2]: 2920 µM
- IC50 [3]: 38.3 µM

SMILES: CCCCCC1N=C(N)CC1C (stereo in doubt; 20)
- IC50 [1]: 0.25 µM
- IC50 [2]: 226 µM
- IC50 [3]: 3.2 µM

SMILES: CCCCCC1N=C(N)CC1C (stereo in doubt; 21)
- IC50 [1]: 4.5 µM
- IC50 [2]: 578 µM
- IC50 [3]: 20.6 µM

SMILES: CCCCCC1N=C(N)CC1C(F)(F)F (stereo in doubt; 22)
- IC50 [1]: 0.23 µM
- IC50 [2]: 212 µM
- IC50 [3]: 2.53 µM

SMILES: CCCCCC1N=C(N)CC1C(F)(F)F (stereo in doubt; 23)
- IC50 [1]: 7.5 µM
- IC50 [2]: 1680 µM
- IC50 [3]: 45.7 µM
